Laboratory results: patent US20080132531A1, “SYNERGISTIC COMBINATIONS OF N[…] OPIOID ANALGESICS” (Yaupon Therapeutics, Inc., priority 2005, published 2008)

Experiments:
[1] = tested on: neuropathic rats (sciatic nerve constriction), nerve-injured paw; test: Sciatic nerve constriction model of peripheral neuropathy, mechanical (paw pressure) and thermal (plantar) hyperalgesia; type: in vivo, Sprague Dawley rats; settings: for ED50: Rattus norvegicus, read-out: ED50 (antinociceptive potency); for ED50 / ED50 (antinociceptive potency): from % MPE vs. log dose curves; for antinociception in response to mechanical and thermal noxious stimuli on the nerve-injured paw: 1, 2, 4, 8 mg/kg IP
Procedure: (§1) Sprague Dawley (about 90 days old; 350 g) male rats were used (8 rats/drug/experimental group). R,S-norketamine, S-norketamine, R-norketamine (Yaupon Therapeutics Inc.) and R,S-ketamine (Sigma) were dissolved in saline and injected intraperitoneally (IP, 1 ml/kg). Each rat received four doses of a drug (1, 2, 4, 8 mg/kg; repeated block Latin square design; 48 h intervals). Saline served as control.
A sciatic nerve constriction model of peripheral neuropathy previously employed was used [Benett and Xie, 1988]. Briefly, under pentobarbital anesthesia (40 mg/kg, IP) the ligation of sciatic nerve and sham surgery were performed on the left and right hind paws, respectively. Proximal to the sciatic trifuracation, nerve (7 mm) was freed from adhering tissue and four loose ligatures were tied around nerve (1 mm apart) with 4.0 chromic gut, barely constricting the diameter of the nerve. The incision was closed in layers. […] No severe motor impairment was observed.
The analgesic properties of drugs were determined in neuropathic rats. Responsiveness to both mechanical and thermal noxious stimulations was determined in separate groups of rats. Rats were trained on three occasions before initiation of the study. Experiments were performed on days 7, 9, 11 and 14 of recovery from surgery (as this is the time of maximal hyperalgesia [Holtman et al., 2003]). Responses were assessed prior to (baseline, taken twice) and at 15-120 min after injection. The left and right paws were tested alternatively in each rat.
Mechanical hyperalgesia was measured using an increasing amount of weight to the paw [Randall and Selitto, 1957]. The hind paw was placed between a flat surface and a blunt pointer in the Basile Analgesimeter (UGO Basile) and increasing pressure (32 g/s) was applied to the dorsal side of the paw. Vocalization was used as end-point [vocalization threshold, VT (g)]. Cut-off at 300 g prevented tissue damage.
The thermal hyperalgesia was measured by plantar test which used a ramp heat stimulus [Hargreaves et al., 1988]. The radiant heat (60% intensity) was positioned under the glass floor directly beneath the plantar hind paw in Plantar Stimulator Analgesia Meter (IITC, Life Science). Latency of paw withdrawal from the heat source was measured [paw withdrawal threshold, PWT (s)]. A cut-off at 20 s prevented tissue damage.
All data were normalized for preinjection baseline values. Areas under the curves (AUC) were calculated for normalized data. Maximum possible effect was calculated as % MPE=(post drug response−baseline/cut off−baseline)×100. ED50 was calculated from % MPE vs. log dose curves. All data were presented as mean ±SEM of 8 rats. The statistical analysis was performed with use of one and two-way repeated measures analysis of variance (ANOVA), post hoc Student Newman Keulus (SNK), Dunnan and t tests.

intact (unoperated) rats [2] = test: Ataxia, behavioral rating scale, intact rats; type: in vivo, Sprague Dawley rats; settings: pilot study
Procedure: as §1
(§2) The behavioral effects of drugs were determined in intact (unoperated) rats. Locomotor activity was determined using the Opto-Varimex infrared photocell-based activity monitor (Columbus Instrument). All activities were scored during 5 min sessions, prior to and 15, 60 and 120 min after injection. All testing were conducted between 10:00-13:00. Assessments were performed in 48 h intervals. Ataxia was determined at 0, […] after injection. The modified behavioral scale [Sturgon et al., 1979] was used for quantification (Table 1).

[3] = Aun, 1999, cited from earlier work
[4] = Plasma levels of S-norketamine versus antinociception (pilot study); type: in vivo; settings: after IP administration in rat
Procedure: Plasma concentration of S-norketamine 200-700 ng/ml was associated with the significant analgesic effect after IP administration in rat.

intact (unoperated) rats [5] = test: Locomotor activity in intact rats (Opto-Varimex activity monitor); type: in vivo, Sprague Dawley rats; settings: highest dose 8 mg/kg IP
Procedure: as §1, §2

Sprague-Dawley rats [6] = test: Tail-flick test (radiant thermal stimulus); type: in vivo; settings: for antinociception, drug alone, IP: morphine 2-10 mg/kg, S-norketamine 0.75-3 mg/kg; for antinociception, drug alone, IT: morphine 3-30 μg, S-norketamine 10-100 μg
Procedure: A dose response curve was generated by determining the analgesic effects of combining a constant dose of an opioid (e.g., morphine) along with an increasing dose of R,S-norketamine, Male and female Sprague-Dawley rats (n=8/sex) all with an approximate age of 85 to 90 days. Each rat should be weighed, prior to being subjected to any tests, on the day of the experiment. Experiments were performed in 72 hour intervals, and prior to the test, the rats were habituated for three days to handling and the tail-flick procedure without heat exposure. • 1 The tail-flick apparatus (IITC Model 33, Life Science, Woodland Hills, Calif.) is pre-warmed for at least 30 minutes. • 2 The intensity of the lamp is adjusted so that baseline tail-flick latency for the rats is equal to approximately 2.0 seconds. […] Tail-flick latency (“TFL”) is measured twice in an approximate 15 minute intervals and an average of the two times determines the baseline. • 8 Once the baseline value is determined, TFL is measured, following the injection of drugs, at times 15, 30, 60 and 120 minutes.
• Normalize data for baseline value (postinjection value at each time point−average preinjection baseline). • Calculate area under the curve (AUC0-120min) for normalized data. • Calculate maximum area under the curve (AUCmax), assuming 10 second response for each time point. • Calculate % MPE=(AUC0-120min)/(AUCmax)×100. • Post-injection thresholds are compared to the baseline threshold using paired t-test. • The difference between doses will be analyzed by 2 way RM ANOVA. • The difference between sex will be analyzed by 2 way RM ANOVA. • All data are presented as mean ±SEM of n rats.
• Normalized data (NOR): subtract average baseline from each value NOR=(post-injection TFL)−(pre-injection baseline) • 12 Percent maximum effect (MPE): • % MPE=(post-injection value−pre-injection baseline)/(cut-off−pre-injection baseline)×100% • 13 Area under the time action curve (AUC0-120 min) calculated by trapezoidal rule • Individual AUC0-120 min.=(average value over the time interval)×(time interval) • Total AUC0-120 min.: sum of individual AUC • Example: AUC0-120 min., % MPE=(15-0 min)×[(MPE0+MPE15)×½]+(30−15)×[(MPE30+MPE15)×½]
A study was undertaken to determine whether S-norketamine (“norKET”) enhances the analgesic effect of morphine (“MOR”). […] Saline (vehicle) served as a control. Responsiveness to thermal noxious stimuli was determined using the tail-flick assay (baseline tail-flick latency (TFL) ˜2-3 s; cut off TFL=10 s). TFL was determined at 0, 15, 30, 60, 90, and 120 min.
Male Sprague-Dawley rats, approximately 90 days old, weighting about 300 g were used. Intrathecal catheter: Chronic catheterization of the spinal subarachnoid space was performed according to Yaksh and Rudy (1976). Drugs: Morphine sulfate (Mallinckrodt) and S-norketamine hydrochloride (Yaupon Therapeutics, Inc.) were dissolved in saline. Saline served as control. Doses refer to salt forms.
Graded doses of morphine and S-norketamine alone as well as a fixed dose of morphine combined with various doses of S-norketamine were administered […] (IP) or intrathecally (IT) in volumes equal to 1 ml/kg and 10 μl, respectively. Doses were balanced by Latin square design: 2× (4×4). Injections were made at weekly intervals.
Tail flick latencies (TFL) were measured using a standard tail-flick apparatus (LifeScience). Preinjection baseline and cut-off times were equal to 2-3 s and 10 s, respectively. TFL was assessed twice prior to (baseline) and at fixed time points after injection. All data were normalized for baseline. The areas under the time action curves (AUC0-120 min) were calculated for normalized data. The percent of maximum effect was calculated as % MPE=[(TFL-baseline)/(10-baseline)×100] at each time point. Data are presented as mean ±SEM of (n) rats.

Sprague-Dawley rats [7] = test: Opioid tolerance development, tail-flick test; type: in vivo; settings: for effect on oxycodone tolerance development: S-norketamine given with oxycodone, IP
Procedure: A tail flick test as described above was administered intrapertoneally to eight Sprague-Dawley rats as described above. The * symbol denotes a statistically difference with oxycodone and norketamine combined versus the two drugs used alone. Data were analyzed with the SNK method, with P less than 0.05. […] A tail flick test as described above was administered intrapertoneally to eight Sprague-Dawley rats as described above. The * symbol denotes a difference with oxycodone used alone as compared to the combination of oxycodone with S norketameine and the +symbol denotes a difference from day 1. Data were analyzed with the SNK method, with P less than 0.05.

rats = settings: intravenous or intraspinal; cited from earlier work
NMDA receptor = settings: Ebert et al., 1997; cited from earlier work
rat = test: Analgesic dose of norketamine in the rat; type: in vivo
Procedure: An “optimal” dose is defined as a dose of an analgesic, when taken alone, is sufficient to provide analgesic relief. In the rat, for example, an optimal dose of norketamine is about 8 mg/kg intraperitoneally (IP). A “sub-optimal” dose is defined as about 1 to about 60% of the optimal dose used to induce analgesia; more preferably about 5% to about 40%, and even more preferably about 10% to about 20%. A “sub-analgesic” does is defined as a dose at which little to no analgesic effect is provided. For example, a sub-analgesic dose of norketamine is less than about 3 mg/kg. Typically, a sub-analgesic dose correlates with less than about 5 AUC units or less than about 5% MPE (maximum possible effect).

SMILES: CNC1(c2ccccc2Cl)CCCCC1=O (racemic) [R,S-ketamine, 2-(2-chlorophenyl)-2-(methylamino)-cyclohexanone, reference compound]
- ED50 ([1]; nerve-injured paw, IP): 15.8 ± 0.38 mg/kg
- ataxia (intact (unoperated) rats [2]): marked ataxia

SMILES: CN[C@]1(c2ccccc2Cl)CCCCC1=O [S-ketamine, reference compound]
- potency relative to R-ketamine [3]: twice as potent as R-ketamine

SMILES: N[C@]1(c2ccccc2Cl)CCCCC1=O [S-norketamine]
- plasma concentration associated with the significant analgesic effect [4]: 200 to 700 ng/mL
- motor (depressive) / locomotor effect (intact (unoperated) rats [5]): less for S than R isomer
- ability to enhance morphine analgesia compared with ketamine-morphine interaction (Sprague-Dawley rats [6]; IP, comparison with Holtman et al., 2003): greater than that previously demonstrated for ketamine-morphine
- antinociception, drug alone, IP (Sprague-Dawley rats [6]; IP): did not produce an antinociceptive effect
- antinociception, drug alone, IT (Sprague-Dawley rats [6]): did not produce an antinociceptive effect
- potentiation of the antinociceptive effect of low dose morphine, IP (Sprague-Dawley rats [6]; S-norketamine 0.75-3 mg/kg IP with morphine 3 mg/kg IP): dose-dependently potentiated
- potentiation of the antinociceptive effect of low dose morphine, IT (Sprague-Dawley rats [6]; S-norketamine 10-100 μg IT with morphine 0.5 μg IT): dose-dependently potentiated
- antinociception in response to mechanical and thermal noxious stimuli on the nerve-injured paw ([1]; nerve-injured paw): attenuated, in dose-related fashion
- ED50 (antinociceptive potency) ([1]; nerve-injured paw, IP): 7.3 ± 0.18 mg/kg
- antinociception on the control (sham-operated) paw ([1]; IP): Neither drug had effect
- effect on morphine tolerance (Sprague-Dawley rats [7]; S-norketamine given with morphine): reduction of morphine tolerance
- effect on oxycodone tolerance development (Sprague-Dawley rats [7]): tolerance of oxycodone is inhibited
- effect on oxycodone tolerance development (Sprague-Dawley rats [7]; listed as S-norketamine HCl): attenuation of oxycodone tolerance development
- ataxia (intact (unoperated) rats [2]): no ataxia

SMILES: N[C@@]1(c2ccccc2Cl)CCCCC1=O [R-norketamine]
- antinociception in response to mechanical and thermal noxious stimuli on the nerve-injured paw ([1]; nerve-injured paw): attenuated, in dose-related fashion
- ED50 (antinociceptive potency) ([1]; nerve-injured paw, IP): 51.1 ± 0.54 mg/kg
- antinociception on the control (sham-operated) paw ([1]; IP): Neither drug had effect

SMILES: CN1CC[C@]23c4c5ccc(O)c4O[C@H]2[C@@H](O)C=C[C@H]3[C@H]1C5 [Morphine, reference compound]
- antinociception, drug alone, IP (Sprague-Dawley rats [6]; IP): dose-related antinociception
- antinociception, drug alone, IT (Sprague-Dawley rats [6]): dose-related antinociception
- % MPE (Sprague-Dawley rats [6]; morphine alone 30 μg IT): 60%
- % MPE (Sprague-Dawley rats [6]; morphine alone 10 mg/kg IP): 100%

SMILES: NC1(c2ccccc2Cl)CCCCC1=O (centres unmarked) [norketamine, 2-(2-chlorophenyl)-2-amino-cyclohexanone]
- adverse sequelae relative to an equal dose of ketamine (rats): fewer of the adverse sequelae
- NMDA receptor binding relative to ketamine enantiomers (NMDA receptor): less tightly than either S- or R-ketamine
- anesthetic and analgesic potency relative to ketamine ([3]; speculated): one third that of ketamine
- sub-analgesic dose (little to no analgesic effect) (rat; in vivo): less than 3 mg/kg
- optimal dose (sufficient alone to provide analgesic relief) (rat; intraperitoneally (IP)): about 8 mg/kg

SMILES: NC1(c2ccccc2Cl)CCCCC1=O (racemic) [R,S-norketamine, 2-(2-chlorophenyl)-2-amino-cyclohexanone]
- motor (depressive) / locomotor effect (intact (unoperated) rats [5]): less pronounced
- ED50 ([1]; nerve-injured paw, IP): 11.3 ± 0.23 mg/kg
- antinociception in response to mechanical and thermal noxious stimuli on the nerve-injured paw ([1]; nerve-injured paw): dose-related antinociception
- duration of antinociceptive effect ([1]; nerve-injured paw, IP): > 2 h
- antinociception on the control (sham-operated) paw ([1]; IP): No antinociception
- ataxia (intact (unoperated) rats [2]): no ataxia
